Laboratory results as given in US4115482A, “Stereospecific cis- and trans-vinylic phosphorus esters” (priority 1977, dated 1978).

Tests used:
bovine cholinesterase = target: T1, bovine cholinesterase (Bos taurus, UniProt P23795); test: Cholesterinase placeholder; format: biochemical; details: for Cholinesterase IC50 (50% inhibiting concentration), after oxidation: after oxidation with peracetic acid in benzene (75°, 20 minutes) to the corresponding monothiophosphate, bovine cholinesterase, 35° C., 30 minutes
T1 construct: Ellman test with acetylthiocholine
Description: The insecticidal effectiveness of organophosphorus compounds is generally attributed to their inhibition of the cholinesterase enzyme. This inhibiting potency is usually expressed as the concentration of the compound which will reduce the activity of the enzyme by 50%, i.e. […]. The […] values of several cis- and trans-S-propenyl dialkyl dithiophosphates were determined to estimate the relative insecticidal potential of the geometric isomer pairs.
Test Method: To a solution of 0.2 unit of bovine cholinesterase in 2.97 ml of a buffer solution containing 11.15 g of disodium hydrogen phosphate dodecahydrate and 1.81 g of potassium dihydrogen phosphate per liter of water, 0.03 ml of a solution of the dithiophosphate adduct in benzene was added. This mixture was then incubated in a water bath at 35° C. for 30 minutes. One ml of a solution containing 100 mg of 5,5'-dithiobis-(2-nitrobenzoic acid), 100 mg of acetylthiocholine iodide, and 75 ml of the above buffer solution in sufficient water to make 200 ml was then added and the mixture again incubated in a water bath at 35° C. for 30 minutes more. The amount of inhibition of bovine cholinesterase was then determined from the absorbance of this solution at 420 millimicrons. By using a series of solutions of the test chemical at various concentrations in acetone, the concentration needed for 50% inhibition was determined.
The oxidation was carried out with peracetic acid in benzene solution at 75° for 20 minutes. After the removal of the excess peracetic acid, the benzene solution was used for enzyme inhibition as described above.
The median inhibiting concentrations for the cis- and trans-S-propenyl dimethyl and diethyl dithiophosphates are listed in Table II. Data on S-vinyl dimethyl dithiophosphate are also tabulated for comparison.

two spotted spider mite = test: Systemic miticidal action on potted bean plants (soil treatment); format: in vivo; details: 20 ml of aqueous emulsion containing 0.05% of the chemical applied to soil, 5 days
Description: For this purpose, a systemic pesticide test on mites was chosen as an example.
Test Method: Potted bean plants were infested with the two spotted spider mite. The soil in the pots was then treated by applying 20 ml of aqueous emulsion containing 0.05% of the chemical. The emulsions were prepared by dissolving the cis- and the trans-compound in acetone and dispersing it in distilled water with Triton X-100. (The emulsifier is an alkylaryl polyether alcohol derived from nonylphenol and ethylene oxide). After the application of the test emulsion, the plants were held for 5 days and then the degree of mite control was rated.

T1 sequence (P23795 31-613): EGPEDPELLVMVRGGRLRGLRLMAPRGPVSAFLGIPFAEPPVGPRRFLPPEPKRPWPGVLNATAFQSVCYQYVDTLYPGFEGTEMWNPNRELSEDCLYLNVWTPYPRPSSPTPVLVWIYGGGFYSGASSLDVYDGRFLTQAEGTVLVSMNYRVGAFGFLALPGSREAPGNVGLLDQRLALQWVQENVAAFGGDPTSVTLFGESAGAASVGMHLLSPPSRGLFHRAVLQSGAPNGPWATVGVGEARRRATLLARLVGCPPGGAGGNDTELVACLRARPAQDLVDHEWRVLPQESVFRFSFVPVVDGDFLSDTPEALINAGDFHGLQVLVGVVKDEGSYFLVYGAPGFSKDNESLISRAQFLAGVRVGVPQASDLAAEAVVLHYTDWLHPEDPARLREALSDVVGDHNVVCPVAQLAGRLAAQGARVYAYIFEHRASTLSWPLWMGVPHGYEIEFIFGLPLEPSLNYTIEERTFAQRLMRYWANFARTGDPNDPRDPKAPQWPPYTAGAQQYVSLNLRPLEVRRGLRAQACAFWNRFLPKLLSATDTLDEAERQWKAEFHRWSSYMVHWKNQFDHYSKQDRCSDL

| SMILES | Cholinesterase IC50 (50% inhibiting concentration), after oxidation (bovine cholinesterase) | degree of mite control (systemic) (two spotted spider mite) | cholinesterase inhibition, comparison in words (bovine cholinesterase; relative inhibiting potency of isomers, oxidized forms and S-vinyl analog) |
| --- | --- | --- | --- |
| C=CSP(=S)(OC)OC [Reference, S-vinyl dimethyl dithiophosphate, reference compound] | 3.1 × 10^ -6 mole/liter | – | – |
| C/C=C/SP(=S)(OCC)OCC [Example 1, trans-S-Propenyl O,O'-Diethyl Dithiophosphate] | 1.6e-07 mol/L | – | – |
| C/C=C\SP(=S)(OC)OC [Example 3, cis-Propenyl O,O'-Dimethyl Dithiophosphate] | 4.1e-05 mol/L | there were live mites and their nymphs | – |
| CC=CSP(=S)(OCC)OCC | 4.4e-06 mol/L | – | – |
| C/C=C/SP(=S)(OC)OC [Example 4, trans-S-Propenyl O,O'-Dimethyl Dithiophosphate] | 2.8e-08 mol/L | completely free from mites and nymphs | the substitution of the trans-vinylic hydrogen by a methyl group increases the insecticidal potential |
| C/C=C\SP(=S)(OCC)OCC [Example 2, cis-Propenyl O,O'-Diethyl Dithiophosphate] | 0.00018 mol/L | – | – |
